Measured values: patent US5637262A, “Photochromic substituted naphthopyran compounds” (Transitions Optical, Inc., priority 1995, dated 1997)

What was measured:
Assay type in all cases: physicochemical
[1] = Solar response / loss in response on optical bench with 320 nm and 360 nm filters (Part C); details: for Δ OD @ 320 nm / Δ OD @ 360 nm: 15 minute exposure; for Δ OD @ 320 nm: 320 nanometer filter; for Δ OD @ 360 nm: 360 nanometer filter; for % LOSS IN RESPONSE: (OD 320 nm - OD 360 nm)/OD 320 nm x 100; for BLEACH RATE T 1/2: polymeric matrix prepared from a diethylene glycol bis(allyl carbonate) composition
Procedure: (§1) The test samples were evaluated for photochromic response rates on an optical bench. The samples were illuminated by a 150 watt Xenon lamp fitted with a copper sulfate bath, a 320 nanometer filter, and a neutral density filter at an intensity of about one sun. A second beam of light provided by a filtered tungsten lamp arranged to pass through the sample area exposed by the UV source was used to monitor changes in transmission of the sample over different wavelength ranges in the visible region of the spectrum. The intensity of the monitoring beam after passing through the sample was measured by means of an IL-1500 radiometer equipped with a silicon detector head and matching filters.
(§2) The Δ OD/Min, which represents the sensitivity of the photochromic compound's response to UV light, was measured using photopic filters on the silicon detector. The response of the filtered detector approximated the luminosity curve. The Δ OD was measured over the first five (5) seconds of UV exposure, then expressed on a per minute basis. The saturation optical density (OD) was taken under identical conditions as the Δ OD/Min, except UV exposure was continued for 20 minutes for the examples in Table 2. The Bleach Rate T 1/2 is the time interval in seconds for the absorbance of the activated form of the naphthopyran in the test polymers to reach one half the highest absorbance at room temperature (72° F., 22.2° C.) after removal of the source of activating light.
The solar response for naphthopyrans of Example 7 and Comparative Examples 3 and 4 was measured using the optical bench described in Part B. The naphthopyrans were imbibed by thermal transfer into test squares of a polymeric matrix prepared from a diethylene glycol bis(allyl carbonate) composition and two optical density measurements were made after 15 minute exposures to a UV source first fitted with a 320 nanometer filter and then fitted with a 360 nanometer filter. The loss in response was calculated by subtracting the optical density obtained with the 360 nanometer filter from the optical density obtained with the 320 nanometer filter and then dividing this figure by the optical density obtained with the 320 nanometer filter and multiplying by 100.
The loss in response measurement, expressed as a percent, simulates the difference between the photochromic response of the compounds exposed to full mid-day sun and to low light conditions, such as early day and late in the day when the lower wavelength components of the UV spectrum are attenuated.

[2] = Activating wavelength by UV spectrophotometer (diethylene glycol dimethyl ether); details: for ACTIVATING WAVELENGTH: Table 3; for Activating Wavelength in Diethylene Glycol Dimethyl Ether: Table 1, approximately 0.5 milligram per milliliter in diethylene glycol dimethyl ether
Procedure: The products of Examples 1, 5, 8, 9, and Comparative Examples 1 and 2 were dissolved in diethylene glycol dimethyl ether. The concentrations of the resulting solutions were approximately 0.5 milligram per milliliter. Each solution was tested in a UV spectrophotometer to determine its activating wavelength. The activating wavelength reported in Table 1 is the wavelength at which activation of the photochromic compound occurs in diethylene glycol dimethyl ether. That value corresponds to the absorption peak in the ultraviolet region that is closest to the visible region or the threshold range, i.e., 390 to 410 nanometers, if there is only one absorption peak in this region. If there is more than one absorption peak, the activating wavelength corresponds most closely to the absorption peak that immediately proceeds the peak of longer wavelength in the ultraviolet region or the threshold range.

[3] = Photochromic response on optical bench in homopolymer of diethylene glycol bis(allyl carbonate) test squares (Part B); details: for BLEACH RATE T 1/2: Table 2, room temperature (72° F., 22.2° C.), homopolymer of diethylene glycol bis(allyl carbonate); for Δ OD @ SATURATION: UV exposure 20 minutes; for Δ OD @ SATURATION / Δ OD/Min SENSITIVITY: 320 nanometer filter, homopolymer test squares; for Δ OD/Min SENSITIVITY: first five (5) seconds of UV exposure, per minute basis
Procedure: Each naphthopyran was dissolved into toluene solvent to form a 4 weight percent solution of the compound. A piece of No. 4 Whatman filter paper was saturated with the naphthopyran solution and allowed to air dry. The dried filter paper was placed on one side of the polymer test square, which measured 1/8 inch (0.3 centimeter)×2 inch (5.1 centimeters)×2 inch (5.1 centimeters). A piece of untreated filter paper was placed on the other side of the polymer test square and the resulting sandwich placed between two plates of flat aluminum metal plates. […] The imbibed test squares were washed with acetone after removal from the oven.
as §1
as §2, with “2.” for “2. The Bleach Rate T 1/2 is the time interval in seconds for the absorbance of the activated form of the naphthopyran in the test polymers to reach one half the highest absorbance at room temperature (72° F., 22.2° C.) after removal of the source of activating light.”

SMILES	Δ OD @ 320 nm [1]	Δ OD @ 360 nm [1]	% LOSS IN RESPONSE [1]	BLEACH RATE T 1/2 ([1]; Table 3)	ACTIVATING WAVELENGTH [2]	Activating Wavelength in Diethylene Glycol Dimethyl Ether [2]	BLEACH RATE T 1/2 [3]	Δ OD @ SATURATION [3]	Δ OD/Min SENSITIVITY [3]	also measured
COc1ccc(C2(c3ccccc3F)C=Cc3c(ccc4cc(OC)ccc34)O2)cc1 (stereo not drawn) [Comparative Example 3, 3-(2-fluorophenyl)-3-(4-methoxyphenyl)-8-methoxy-3H-naphtho[2,1-b]pyran]	0.266	0.249	6%	5.93 min	359 nm	–	–	–	–	–
COc1ccc2c3c(ccc2c1C)OC(c1ccccc1)(c1ccccc1)C=C3 [Example 9, 3,3-diphenyl-7-methyl-8-methoxy-3H-naphtho[2,1-b]pyran]	–	–	–	–	–	369 nm	–	–	–	–
COC(=O)c1cc2c3c(ccc2cc1OC(C)=O)OC(c1ccc(OC)cc1)(c1ccc(OC)cc1OC)C=C3 (stereo not drawn) [Example 8, 3-(2,4-dimethoxy-phenyl)-3-(4-methoxyphenyl)-8-acetoxy-9-carbomethoxy-3H-naphtho-[2,1-b]pyran]	–	–	–	–	–	376 nm	–	–	–	–
CCCOC(=O)c1cc2c3c(ccc2cc1OC)OC(c1ccccc1)(c1ccccc1)C=C3 [Example 5, 3,3-diphenyl-8-methoxy-9-carbopropoxy-3H-naphtho[2,1-b]pyran]	–	–	–	–	–	382 nm	1.33 min	0.55	1.4 Δ OD/Min	Sensitivity (in words) ([3]; compared to comparative examples 1 and 2): increased sensitivity as compared to the compounds of comparative examples 1 and 2
C1=CC(c2ccccc2)(c2ccccc2)Oc2ccc3ccccc3c21 [compound 2, 3,3-diphenyl-3H-naphtho[2,1-b]pyran]	–	–	–	–	–	348 nm	0.75 min	0.36	0.87 Δ OD/Min	–
CCCOC(=O)c1cc2c3c(ccc2cc1O)OC(c1ccccc1)(c1ccccc1)C=C3 [Example 1, 3,3-diphenyl-8-hydroxy-9-carbopropoxy-3H-naphtho[2,1-b]pyran]	–	–	–	–	–	408 nm	–	–	–	–
COc1ccc2c3c(ccc2c1)OC(c1ccccc1)(c1ccccc1)C=C3 [compound 1, 3,3-diphenyl-8-methoxy-3H-naphtho [2,1-b]pyran]	–	–	–	–	–	359 nm	1.45 min	0.73	1.25 Δ OD/Min	–

Further lines, with some results ahead:

Δ OD @ 320 nm [1]	Δ OD @ 360 nm [1]	% LOSS IN RESPONSE [1]	BLEACH RATE T 1/2 ([1]; Table 3)	ACTIVATING WAVELENGTH [2]	SMILES	Activating Wavelength in Diethylene Glycol Dimethyl Ether [2]	BLEACH RATE T 1/2 [3]	Δ OD @ SATURATION [3]	Δ OD/Min SENSITIVITY [3]	also measured
0.187	0.184	2%	3.27 min	384 nm	COC(=O)c1cc2c3c(ccc2cc1OC)OC(c1ccc(OC)cc1)(c1ccccc1F)C=C3 (stereo not drawn) [Example 7, 3-(2-fluorophenyl)-3-(4-methoxyphenyl)-8-methoxy-9-carbomethoxy-3H-naphtho[2,1-b]pyran]	–	–	–	–	Bleach Rate T 1/2, i.e., rate of fade (in words) ([1]; Table 3): more acceptable Bleach Rate T 1/2; Reduction in optical density, 360 nm vs 320 nm cutoff filter (in words) ([1]; compared to comparative examples 3 and 4): less reduction in optical density
0.260	0.196	25%	5.63 min	348 nm	COc1ccc(C2(c3ccc(OC)cc3OC)C=Cc3c(ccc4ccccc34)O2)cc1 (stereo not drawn) [compound 4, 3-(2,4-dimethoxyphenyl)-3-(4-methoxyphenyl)-3H-naphtho[2,1-b]pyran]	–	–	–	–	–
